# Reference: US6689764B1, “Treatment of angiogenesis dependent conditions with dextrin sulphate” (priority 1999, dated 2004)
# Tests used:
# HUVEC cell line = assay: TCS Biologicals Human Angiogenesis Model (tubule formation); format: cell-based
# Protocol: The effect of sulphated dextrin on vessel formation of the HUVEC cell line was performed by the use of the TCS Biologicals Human Angiogenesis Model. The assay is supplied as a growing culture of the HUVEC cell line together with culture matrix and additional human cells present (the exact nature of the cells is not known) at the earliest stages of tubule formation in a 24-well format. The positive control reagent was a standard stock solution of VEGF and the negative control was Suramin. After removing the well seals, the cultures were examined for cell morphology to confirm their viability.
# Growth medium was provided with the kit and was used to make up the sulphated dextrin at concentrations ranging from 0-1000 μg/ml. The existing medium was aspirated from the wells and replaced with medium containing the dextrin sulphate concentrations in a 0.5ml volume. This was placed at 37° C., in a 5% CO2 containing atmosphere. This was repeated on days 4, 7 and 9.
# Between days 7-11 cultures were fixed by the enclosed fixative and stained with the mouse monoclonal anti-PECAM-1 antibody at a 1:4000 dilution (present in blocking buffer). 0.5ml of diluted antibody was added per well and incubated for 60 minutes at 37° C. The secondary antibody (goat anti-mouse lgG alkaline phosphatase conjugate) was diluted 1:500 in blocking buffer and added to the wells after washing for 60 minutes at 37° C. After washing the plate the substrate was prepared; BCIP/NBT tablets were dissolved in distilled water and added to the wells. Following incubation for 5-10 minutes the wells were washed and were imaged using the Leica Qwin image analysis software package.
# SK-HEP-1 cells = assay: In vitro proliferation, MTT uptake; format: cell-based, human
# Protocol: (§1) SK-HEP-1 is a human liver adenocarcinoma with endothelial morphology and ECV304 is a human urinary bladder carcinoma with endothelial-like characteristics. Both cell lines were obtained from the ECACC. HUVEC was provided as a growing culture by TCS Biologicals.
# (§2) Cells were grown and prepared in RPMI medium containing 10% FCS and 2mM glutamine. For the in vitro assays, cells were harvested with 0.025% EDTA, washed in the culture medium and plated into 96-well plates at 5×10^3 and 1×10^4 cells/well in a volume of 100 μl. After 24 hours, to allow for cell adherence, the medium was replaced with fresh medium containing dextrin sulphate at concentrations of 0, 1, 5, 10, 50, 100, 500, 1000 μg/ml. After 48 hours, proliferation was assessed by methyl thiazol tetrazolium (MTT) uptake as follows:
# (§3) MTT (Sigma) was added to the wells in a 50 μl volume at a concentration of 1mg/ml. After 4 hours incubation the insoluble formazan crystals were solubilised by the addition of 75 μl DMSO/well and the absorbance measured at 550 nm.
# (§4) Dextrin sulphate was assessed in two separate experiments. All experiments were performed with two different cell-seeding concentrations. […] To compare between cell lines and experiments, the level of inhibition achieved at the highest concentration evaluated (1000 μg/ml) was calculated as was the significance from the untreated control. (See FIG. 11).
# ECV304 cells = assay: In vitro proliferation, MTT uptake; format: cell-based, human
# Protocol: as §1, §2, §3, §4
# HUVEC cells = conditions: in vitro, Thornton et al 1999; cited from earlier work
# [1] = system: AP5LV human colorectal xenograft; assay: AP5LV human colorectal xenograft in SCID mice; format: in vivo
# Protocol: Dextrin sulphate, 10 mg/kg in 1ml icodextrin was administered every second day to two male SCID micc. Dosing continued for 14 days.
# The cell line evaluated, AP5LV, is a variant of an established human colorectal cell line, derived originally from a patient's primary tumour. AP5LV cells have been selected for their ability to both colonise the lungs following intravenous injection and to spontaneously metastasise to the lungs following injection of the cells into the peritoneal muscle wall. AP5LV cells were maintained in vitro in RPMI 1640 culture medium (Gibco, Paisley, UK) containing 10% (v/v) heat inactivated foetal bovine serum (Sigma, Poole, UK) at 37° C. in 5% CO2 and humidified conditions. Cells from semi-confluent monolayers were harvested with 0.025% EDTA, washed twice in the culture medium described above, and re-suspended at 5×10^6/50 μl in sterile phosphate buffered saline, pH 7.4(PBS).
# The mice were anaesthetised using Hypnorm(Roche)/Hyponovel(Janssen) and the cell suspension injected into the peritoneal muscle wall of 20 male SCD mice. Mice were electronically tagged for identification purposes (RS Biotech, Tracker), and randomly allocated to two experimental groups (see below). The treatment regime was initiated on day 1 and continued every other day until termination on day 38. […]
# [2] = system: human placental blood vessels; assay: Placental blood vessel in fibrin clot in vitro angiogenesis assay; format: cell-based; conditions: 100 μg/ml, up to day 22
# Protocol: Compounds were tested at a final concentration of 100 μg/ml. The degree of new vessel formation was quantified blind twice a week using a visual analog scale in which 0=no growth, 1=minimal new vessel formation, 2=significant new vessel formation, and 3=dense new vessel formation. An angiogenesis score was derived from each count by dividing the total score (i.e. the sum of all the wells) by the maximum possible score and then expressing the result as a percentage. This graph is representative of 3 experiments with a total of 20 wells/plate/experiment for each compound tested.
# Blood vessels (approximately 1-2 mm diameter) were excised from the apical surface of human placentas within 6 h of an elective Caesarean birth. Use of the placentas for these studies were approved by the Ethics Committee of Hammersmith Hospitals Trust, London. The blood vessels were placed in Hank's balanced salt solution and cut into 1-2 mm fragments using fine dissecting forceps and iridectomy scissors. Residual clots were removed and the blood vessels then soaked in Hank's balanced salt solution.
# The effect of each compound on new blood vessel formulation was determined by culturing the blood vessels within a fibrin clot in 24-well tissue culture plates. Thirty μl of bovine thrombin (50 NIH U/ml in 0.15 M sodium chloride) was added to each well followed by 1 ml/well of 3 mg/ml bovine fibrinogen in Medium 199. The thrombin and fibrinogen were rapidly mixed and a blood vessel fragment placed in the centre of the well. Fibrin gel formation occurred rapidly and left the vessel suspended within the gel. One ml/well of Medium 199 supplemented with 20% foetal calf serum, 250 IU/ml penicillin and 250 U/ml streptomycin was then added to each well. ε-arnino-n-caproic acid was also added (300 μg/ml) for the first 4 days and twice weekly thereafter (50 μg/ml) in order to prevent dissolution of the fibrin clot. The vessels were cultured at 37° C. in a humidified incubator for 25 days with the media being changed twice weekly.
# The degree of new vessel formation was quantified blind twice a week by three different observers using a visual analogue scale in which 0=no growth, 1=very little new vessel formation, 2=significant new vessel formation and 3=dense new vessel formation. An angiogenesis score was derived from the counts undertaken for each well by dividing the total score by the maximum score possible and then expressing the result as a percentage. On each of 3 separate occasions, each compound was tested in 20 replicate wells. […] Some of the fibrin clots were fixed overnight in 10% formalin, paraffin embedded, sectioned for histology and then stained for the endothelial cell markers Factor VIII and CD31. Results are expressed as the mean±sem. A students t-test was used to determine the level of significance.
substance,measurement,setting,value
dextrin sulphate,"branch point number, % of control",HUVEC cell line; 1 μg/ml,120%
same,"tubule branch points, reduction",HUVEC cell line; 1 μg/ml,31%
same,"branch point number, % of control",HUVEC cell line; 5 μg/ml,115%
same,"branch point number, inhibition",HUVEC cell line; 50 μg/ml,26%
same,"branch point number, inhibition",HUVEC cell line; 100 μg/ml,48%
same,"tubule number, inhibition",HUVEC cell line; 100 μg/ml,48%
same,"branch point number, inhibition",HUVEC cell line; 500 μg/ml,53%
same,"branch point number, inhibition",HUVEC cell line; 1000 μg/ml,68%
same,"tubule branch points, reduction",HUVEC cell line; 1000 μg/ml,93%
same,"tubule number, inhibition",HUVEC cell line; 1000 μg/ml,68%
same,branch point number,HUVEC cell line; all concentrations evaluated (1-1000 μg/ml),inhibitory effect
same,tubule number,HUVEC cell line; lower concentrations,low but significant stimulation
same,inhibition of in vitro growth,"SK-HEP-1 cells; SK-HEP-1, 0-1000 μg/ml, 48 hours",moderate levels of inhibition
same,level of inhibition of growth,"SK-HEP-1 cells; SK-HEP-1, 1000 μg/ml, lower cell concentration",~65%
same,concentrations at which inhibitory effects were seen,"SK-HEP-1 cells; SK-HEP-1, MTT assay",> 100 µg/mL
same,level of inhibition of growth,"SK-HEP-1 cells; SK-HEP-1, higher cell concentration",not as great
same,inhibition of in vitro growth,"ECV304 cells; ECV304, 0-1000 μg/ml, 48 hours",moderate levels of inhibition
same,level of inhibition of growth,"ECV304 cells; ECV304, 1000 μg/ml, both cell concentrations, two experiments",11-33%
same,concentrations at which inhibitory effects were seen,"ECV304 cells; ECV304, MTT assay",> 100 µg/mL
same,proliferation of HUVEC cells,HUVEC cells,not to be directly inhibited
same,toxicity,"[1]; 10 mg/kg i.p. every second day, SCID mice",no toxicity
same,reduction in final tumour weight,"[1]; 10 mg/kg in 4% Icodextrin i.p. every second day, termination day 38, SCID mice",28%
same,new vessel formation compared to media alone,[2],inhibits new vessel formation
